Broadly, the DC50 is the concentration giving 50% degradation. Higher therefore signals a less potent degrader. One may read the Dmax as the largest share of the target that was removed. Low readings indicate a partial loss of target, high ones a fuller loss of target.

For one test, the target named is T1, SMARCA4 (Homo sapiens, UniProt P51532).
T1 construct: SMARCA4-HiBiT knock-in Hela monoclonal cell (CS3023226) were purchased from Promega; host or cells: HeLa SMARCA4-HiBiT knock-in monoclonal cells (heterozygous knock-in)
Description: SMARCA4 HiBiT degradation assay in HeLa cells. The note with it: 18 hours incubation. Type of test: cell-based. The procedure: (§1) Example A. SMARCA2 HiBiT and SMARCA4 HiBiT Degradation Assay
(§2) Preparation of SMARCA2/4-HiBiT Knock-In Cells
(§3) HiBiT peptide knock-in of SMARCA2 in LgBiT expressing HEK293T cells was performed by CRISPR-mediated tagging system as described Promega. The homozygous HiBiT knock-in on c-terminus SMARCA2 was confirmed by sanger sequence. SMARCA2-HiBiT knock-in Hela monoclonal cell (CS302366) and SMARCA4-HiBiT knock-in Hela monoclonal cell (CS3023226) were purchased from Promega. The heterozygous HiBiT-knock-in was confirmed by sanger sequence in both SMARCA2-HiBiT and SMARCA4-HiBiT monoclonal cells.
(§4) SMARCA2 HiBiT and SMARCA4 HiBiT Degradation Assay in HeLa Cells
(§5) Compounds were dissolved in DMSO to make 10 mM stock and 3-fold series dilutions were further conducted keeping the highest concentration 10 μM. NCIH1693 and NCIH520 cells were maintained in PRMI 1640 medium (Corning Cellgro, Catalog #:10-040-CV) supplemented with 10% v/v FBS (GE Healthcare, Catalog #: SH30910.03) by splitting 1:3 twice a week.
(§6) Dispense 10 ul aliquot of prepared Hela-SMARCA2-HiBiT or Hela-SMARCA4-HiBiT cells (1:1 ratio of cells:Trypan Blue (#1450013, Bio-Rad)) onto cell counting slide (#145-0011, Bio-Rad) and obtain cell density and cell viability using cell counter (TC20, Bio-Rad). Remove appropriate volume of resuspended cells from culture flask to accommodate 2500 cells/well @[…]. Transfer Hela-HiBiT cells to 50 mL conical (#430290, Corning). Spin down at 1000 rpm for 5 min using tabletop centrifuge (SPINCHRON 15, Beckman). Discard supernatant and resuspend cell pellet in modified EMEM (#30-2003, ATCC) cell culture media containing 10% FBS (F2422-500 ML, Sigma), and 1× Penicillin/Streptomycin (200 g/L) (30-002-CI, Corning) to a cell density of 125,000 cells/mL. Dispense […] of resuspended Hela-HiBit cells per well in 384-well TC treated plate (#12-565-343, Thermo Scientific) using standard cassette (#50950372, Thermo Scientific) on Multidrop Combi (#5840310, Thermo Scientific) inside laminar flow cabinet. Dispense test compounds onto plates using digital liquid dispenser (D300E, Tecan). Incubate plates in humidified tissue culture incubator @37° C. for 18 hours. Add […] of prepared Nano-Glo® HiBiT Lytic detection buffer (N3050, Promega) to each well of 384-well plate using small tube cassette (#24073295, Thermo Scientific) on Multidrop Combi, incubate @RT for 30-60 min. Read plates on microplate reader (Envision 2105, PerkinElmer) using 384 well Ultra-Sensitive luminescence mode. Raw data files and compound information reports are swept into centralized data lake and deconvoluted using automated scripts designed by TetraScience, Inc. Data analysis, curve-fitting and reporting done in Dotmatics Informatics Suite using Screening Ultra module.
(§7) In Table 5, A=DC50<0.1 μM; B=0.1 μM≤DC50<1 μM and C=DC50>1 μM. In Table 5, A=Dmax>75% and B=50%<Dmax≤75% and C=Dmax<50%.
For orientation: HiBiT is a short tag that completes a luciferase, so light tracks the accessible tagged protein.

In the next test the target is T2, SMARCA2 (Homo sapiens, UniProt P51531).
T2 construct: SMARCA2-HiBiT knock-in Hela monoclonal cell (CS302366); host or cells: HeLa SMARCA2-HiBiT knock-in monoclonal cells (heterozygous knock-in)
Kind of test: SMARCA2 HiBiT degradation assay in HeLa cells. The test is classed as cell-based. The note with it: 18 hours incubation. The protocol: as §1, §2, §3, §4, §5, §6, §7

T2 sequence (P51531 whole entry): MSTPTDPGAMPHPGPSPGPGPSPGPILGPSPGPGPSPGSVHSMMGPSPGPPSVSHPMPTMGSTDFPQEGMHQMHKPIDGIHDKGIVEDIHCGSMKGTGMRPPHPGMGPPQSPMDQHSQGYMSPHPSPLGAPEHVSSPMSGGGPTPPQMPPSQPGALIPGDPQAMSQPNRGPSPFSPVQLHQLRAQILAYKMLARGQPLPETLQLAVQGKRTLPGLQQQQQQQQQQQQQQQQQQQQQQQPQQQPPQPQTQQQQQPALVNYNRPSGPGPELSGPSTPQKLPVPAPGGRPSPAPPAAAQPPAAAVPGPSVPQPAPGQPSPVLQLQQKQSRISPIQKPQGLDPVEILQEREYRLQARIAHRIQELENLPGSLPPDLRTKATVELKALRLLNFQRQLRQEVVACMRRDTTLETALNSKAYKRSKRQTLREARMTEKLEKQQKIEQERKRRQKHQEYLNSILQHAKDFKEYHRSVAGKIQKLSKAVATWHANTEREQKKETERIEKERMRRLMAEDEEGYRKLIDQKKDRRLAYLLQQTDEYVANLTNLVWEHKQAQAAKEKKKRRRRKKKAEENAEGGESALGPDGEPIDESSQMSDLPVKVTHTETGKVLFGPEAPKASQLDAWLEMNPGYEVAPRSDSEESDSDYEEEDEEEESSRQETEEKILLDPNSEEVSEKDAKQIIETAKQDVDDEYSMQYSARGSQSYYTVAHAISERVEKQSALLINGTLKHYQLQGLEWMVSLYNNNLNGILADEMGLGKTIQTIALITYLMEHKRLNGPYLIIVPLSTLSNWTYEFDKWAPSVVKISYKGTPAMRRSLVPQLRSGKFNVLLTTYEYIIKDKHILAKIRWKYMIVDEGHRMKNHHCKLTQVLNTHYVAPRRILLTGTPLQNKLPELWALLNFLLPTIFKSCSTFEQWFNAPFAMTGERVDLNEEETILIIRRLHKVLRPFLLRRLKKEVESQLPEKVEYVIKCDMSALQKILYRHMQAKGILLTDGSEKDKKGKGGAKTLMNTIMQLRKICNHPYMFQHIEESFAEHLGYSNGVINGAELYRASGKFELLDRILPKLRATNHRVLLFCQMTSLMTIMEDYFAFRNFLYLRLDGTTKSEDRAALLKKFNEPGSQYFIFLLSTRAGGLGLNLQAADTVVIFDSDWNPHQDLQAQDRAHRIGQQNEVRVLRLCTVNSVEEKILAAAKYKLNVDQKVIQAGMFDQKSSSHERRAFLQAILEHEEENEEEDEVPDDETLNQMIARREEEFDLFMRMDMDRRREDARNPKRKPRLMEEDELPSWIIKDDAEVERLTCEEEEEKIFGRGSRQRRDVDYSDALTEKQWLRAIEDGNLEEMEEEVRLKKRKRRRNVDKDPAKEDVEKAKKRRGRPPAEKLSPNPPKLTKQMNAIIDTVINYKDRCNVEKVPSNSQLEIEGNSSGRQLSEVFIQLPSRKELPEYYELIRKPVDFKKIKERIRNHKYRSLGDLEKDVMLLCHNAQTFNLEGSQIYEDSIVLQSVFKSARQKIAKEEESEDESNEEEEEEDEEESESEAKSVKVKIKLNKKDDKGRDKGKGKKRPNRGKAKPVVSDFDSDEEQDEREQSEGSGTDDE
T1 sequence (P51532 whole entry): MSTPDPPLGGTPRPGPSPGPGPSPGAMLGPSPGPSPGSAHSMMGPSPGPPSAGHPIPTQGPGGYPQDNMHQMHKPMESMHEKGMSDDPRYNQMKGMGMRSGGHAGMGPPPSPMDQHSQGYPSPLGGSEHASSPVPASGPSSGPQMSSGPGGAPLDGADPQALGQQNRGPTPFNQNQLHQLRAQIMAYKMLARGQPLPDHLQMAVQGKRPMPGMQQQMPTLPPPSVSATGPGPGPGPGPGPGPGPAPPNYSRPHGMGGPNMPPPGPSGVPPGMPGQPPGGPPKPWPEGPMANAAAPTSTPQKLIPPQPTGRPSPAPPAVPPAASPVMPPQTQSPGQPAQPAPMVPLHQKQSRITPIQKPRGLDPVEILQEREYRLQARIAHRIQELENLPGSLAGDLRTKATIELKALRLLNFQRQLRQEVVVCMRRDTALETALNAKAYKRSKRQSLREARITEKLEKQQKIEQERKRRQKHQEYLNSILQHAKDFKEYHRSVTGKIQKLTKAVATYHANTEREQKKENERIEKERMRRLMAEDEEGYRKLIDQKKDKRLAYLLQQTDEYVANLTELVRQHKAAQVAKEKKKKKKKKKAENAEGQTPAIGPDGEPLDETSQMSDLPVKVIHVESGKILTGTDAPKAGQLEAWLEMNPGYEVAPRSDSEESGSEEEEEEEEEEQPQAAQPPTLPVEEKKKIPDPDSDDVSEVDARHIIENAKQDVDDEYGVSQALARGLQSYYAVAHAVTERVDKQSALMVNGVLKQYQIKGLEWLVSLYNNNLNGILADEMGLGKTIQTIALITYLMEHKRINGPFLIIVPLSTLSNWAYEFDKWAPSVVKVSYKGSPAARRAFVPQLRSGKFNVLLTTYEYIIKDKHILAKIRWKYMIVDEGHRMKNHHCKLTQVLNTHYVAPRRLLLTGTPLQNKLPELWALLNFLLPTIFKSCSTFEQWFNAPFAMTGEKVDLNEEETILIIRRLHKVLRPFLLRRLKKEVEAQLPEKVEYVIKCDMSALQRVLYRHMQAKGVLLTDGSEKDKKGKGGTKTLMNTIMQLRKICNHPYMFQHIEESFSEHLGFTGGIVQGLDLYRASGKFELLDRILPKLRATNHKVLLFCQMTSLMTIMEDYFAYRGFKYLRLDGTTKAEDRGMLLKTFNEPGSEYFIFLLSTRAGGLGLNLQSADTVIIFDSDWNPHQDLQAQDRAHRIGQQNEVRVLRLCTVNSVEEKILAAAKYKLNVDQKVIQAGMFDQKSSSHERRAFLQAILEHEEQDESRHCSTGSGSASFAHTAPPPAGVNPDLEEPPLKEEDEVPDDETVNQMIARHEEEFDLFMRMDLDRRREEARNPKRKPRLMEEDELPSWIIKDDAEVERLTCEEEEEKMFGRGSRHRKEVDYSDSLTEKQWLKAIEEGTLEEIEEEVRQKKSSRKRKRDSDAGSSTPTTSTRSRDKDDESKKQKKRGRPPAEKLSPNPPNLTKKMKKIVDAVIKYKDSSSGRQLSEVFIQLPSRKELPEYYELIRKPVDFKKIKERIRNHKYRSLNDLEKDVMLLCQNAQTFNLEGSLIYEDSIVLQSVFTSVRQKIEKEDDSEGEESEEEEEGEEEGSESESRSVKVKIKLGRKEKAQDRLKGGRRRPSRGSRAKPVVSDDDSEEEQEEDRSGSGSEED

In the case of `CC1(C)CN(CC2CCN(c3ccc4c(c3)C(=O)N([C@H]3CCC(=O)NC3=O)C4)CC2)CCN1C(=O)N1CCc2[nH]c3nnc(-c4ccccc4O)cc3c2CC1` [Example 1, (S)-3-(6-(4-((4-(3-(2-Hydroxyphenyl)-5,6,7,8,9,10-hexahydropyridazino [4′,3′:4,5]pyrrolo[2,3-d]azepine-7-carbonyl)-3,3-dimethylpiperazin-1-yl)methyl)piperidin-1-yl)-1-oxoisoindolin-2-yl)piperidine-2,6-dione], at SMARCA4, the DC50 is < 100 nM and the Dmax was > 75%. For the same molecule, on SMARCA2, the DC50 was < 100 nM and the Dmax is > 75%.

As to `C[C@@H]1CN(CC2CCN(c3ccc4c(c3)C(=O)N([C@H]3CCC(=O)NC3=O)C4)CC2)C[C@H](C)N1C(=O)N1CCc2[nH]c3nnc(-c4ccccc4O)cc3c2CC1` [Example 2, (S)-3-(6-(4-(((3R,5S)-4-(3-(2-hydroxyphenyl)-5,6,7,8,9,10-hexahydropyridazino[4′,3′:4,5]pyrrolo[2,3-d]azepine-7-carbonyl)-3,5-dimethylpiperazin-1-yl)methyl)piperidin-1-yl)-1-oxoisoindolin-2-yl)piperidine-2,6-dione], the DC50 at SMARCA4 and at SMARCA2 was < 100 nM in each case. Moreover, the Dmax at SMARCA4 and on SMARCA2 was > 75% each time.

Regarding `O=C1CC[C@H](N2Cc3ccc(N4CCC(CN5CCN(C(=O)N6CCc7[nH]c8nnc(-c9ccccc9O)cc8c7CC6)CC5)CC4)cc3C2=O)C(=O)N1` [Example 3, (S)-3-(6-(4-((4-(3-(2-hydroxyphenyl)-5,6,7,8,9,10-hexahydropyridazino[4′,3′:4,5]pyrrolo[2,3-d]azepine-7-carbonyl)piperazin-1-yl)methyl)piperidin-1-yl)-1-oxoisoindolin-2-yl)piperidine-2,6-dione], the DC50 at SMARCA4 and on SMARCA2 was < 100 nM throughout. In addition, the Dmax on SMARCA4 and on SMARCA2 was > 75% throughout.

Regarding `CC1(C)CN(CC2CCN(c3ccc4c(c3)C(=O)N([C@H]3CCC(=O)NC3=O)C4)CC2)CCN1C(=O)N1CCc2[nH]c3nnc(-c4cccc(F)c4O)cc3c2CC1` [Example 4, (S)-3-(6-(4-((4-(3-(3-Fluoro-2-hydroxyphenyl)-5,6,7,8,9,10-hexahydro-pyridazino[4′,3′:4,5]pyrrolo[2,3-d]azepine-7-carbonyl)-3,3-dimethylpiperazin-1-yl)methyl)piperidin-1-yl)-1-oxoisoindolin-2-yl)piperidine-2,6-dione], at SMARCA4, the DC50 is > 1000 nM and the greatest degradation seen (Dmax) was < 50%. In addition, on SMARCA2, the DC50 is < 100 nM and the Dmax was 50 to 75%.

As for `CCC1CN(C(=O)N2CCN(CC3CCN(c4ccc5c(c4)C(=O)N([C@H]4CCC(=O)NC4=O)C5)CC3)CC2(C)C)CCc2c1[nH]c1nnc(-c3cccc(F)c3O)cc21` (stereo partly drawn) [Example 5, (3S)-3-(6-(4-((4-(9-ethyl-3-(3-fluoro-2-hydroxyphenyl)-5,6,7,8,9,10-hexahydropyridazino[4′,3′:4,5]pyrrolo[2,3-d]azepine-7-carbonyl)-3,3-dimethylpiperazin-1-yl)methyl)piperidin-1-yl)-1-oxoisoindolin-2-yl)piperidine-2,6-dione], at SMARCA4, the DC50 is > 1000 nM and the maximal degradation (Dmax) was < 50%. On SMARCA2, this molecule had a DC50 of 100 to 1000 nM and a Dmax of 50 to 75%.

Regarding `CC1(C)CN(CC2CCN(c3ccc4c(c3)C(=O)N([C@H]3CCC(=O)NC3=O)C4)CC2)CCN1C(=O)N1C2CCC1Cc1c([nH]c3nnc(-c4cccc(F)c4O)cc13)C2` (stereo partly drawn) [Example 6, (3S)-3-(6-(4-((4-(3-(3-fluoro-2-hydroxyphenyl)-6,7,8,9,10,11-hexahydro-5H-6,9-epiminocycloocta[4,5]pyrrolo[2,3-c]pyridazine-12-carbonyl)-3,3-dimethylpiperazin-1-yl)methyl)piperidin-1-yl)-1-oxoisoindolin-2-yl)piperidine-2,6-dione], the DC50 at SMARCA4 was 100 to 1000 nM; on SMARCA2 it was < 100 nM. The values for the Dmax at SMARCA4 and on SMARCA2 were 50 to 75% and > 75%, respectively.

Turning to `CC1(C)CN(CC2CCN(c3ccc4c(c3)C(=O)N([C@H]3CCC(=O)NC3=O)C4)CC2)CCN1C(=O)N1CC2CCC1Cc1c2[nH]c2nnc(-c3cccc(F)c3O)cc12` (stereo partly drawn) [Example 7, (3S)-3-(6-(4-((4-(3-(3-fluoro-2-hydroxyphenyl)-5,6,7,8,9,10-hexahydro-6,9-(epiminomethano)cyclohepta[4,5]pyrrolo[2,3-c]pyridazine-12-carbonyl)-3,3-dimethylpiperazin-1-yl)methyl)piperidin-1-yl)-1-oxoisoindolin-2-yl)piperidine-2,6-dione], on SMARCA4, the DC50 lay within 100 to 1000 nM and the Dmax is < 50%. Moreover, at SMARCA2, the half-maximal degradation concentration (DC50) is 100 to 1000 nM and the Dmax is < 50%.

The values are drawn from patent US20250074916A1, “BRM TARGETING COMPOUNDS AND ASSOCIATED METHODS OF USE” (Prelude Therapeutics Incorporated, priority 2023, published 2025).
